The text below walks through data of patent publication US4385055A, “2-Acetyl-and 2-propionylpyridine thiosemicarbazones as antimalarials” (The United States of America as represented by the …, priority 1981, dated 1983).

In brackets after ≈: the same amount, converted by molar mass. Read-outs that look alike come from different tables or passages of the source.

One test has as its system Staphylococcus aureus. Description: Macro broth dilution MIC, Staphylococcus aureus isolates (Test 1). Conditions: 24 h, read after 24 hours, read-out: Minimum Inhibitory Concentration. The class given is cell-based. The procedure:
(§1) Compounds were tested against five isolates of Staphylococcus aureus and five isolates of Group D Enterococcus. The bacteria used were isolated from patients at the Walter Reed Army Medical Center, Washington, D.C. The test procedure used was the macro broth dilution method in duplicate as outlined by J. C. Sherris on pages 414-415 in "Manual of Clinical Microbiology," 2nd ed., E. Lennette, E. H. Spaulding, and J. P. Truant, Ed. (American Society for Microbiology, Washington, D.C., 1974). Each compound was dissolved in DMSO (12.8 mg/mL) and then diluted with Mueller-Hinton broth to obtain the desired dilutions. Tubes containing the highest quantities of DMSO with no compound present were run as controls.

A further test has as its system Neisseria meningitidis. Description: Macro broth dilution MIC, Neisseria meningitidis isolates (Test 2). The class given is cell-based. Conditions: Neisseria meningitidis, 24 h, read after 24 hours, read-out: Minimum Inhibitory Concentration. The procedure:
Compounds were tested against five isolates of Neisseria meningitidis. The bacterial isolates were provided by the Department of Bacterial Diseases of the Walter Reed Army Institute of Research. The test procedure used was the macro broth dilution method in duplicate outlined by J. C. Sherris on pages 414-415 (loc. cit.). The test compounds and controls were prepared as in Test 1 above. Ampicillin and penicillin standards were initially diluted as described by J. C. Sherris on pages 411-412 (loc. cit.) followed by dilution with Mueller-Hinton broth. The tubes were incubated at 37° C. under 5-10% carbon dioxide.

The subject of test [1] is Plasmodium berghei KBG 173. The test is described as follows: In vivo antimalarial activity in mice (Test 5). Set-up: key to In vivo Antimalarial Activity: C: Mice surviving 60 days are considered cured; Active: Activity is defined as a 100% increase in the mean survival time of the treated mice compared to the control group; Toxicity is defined as a decrease in the mean survival time of the treated mice as compared to the control group. Conditions: for ED50: Plasmodium berghei, computed estimate of the dose required to cure 50% of the mice; for In vivo Antimalarial Activity: mice, C = Cure (cured/treated mice). How it is done: Compounds were tested against Plasmodium berghei KBG 173 malaria in mice following the procedure described by T. S. Osdene, P. B. Russell, and L. Rane [J. Med. Chem. 10:431-434 (1967)]. Five mice were tested at each dosage level. Mice surviving 60 days are considered cured. Toxicity is defined as a decrease in the mean survival time of the treated mice as compared to the control group. Activity is defined as a 100% increase in the mean survival time of the treated mice compared to the control group.

The next test has as its system Group D Enterococcus. Description: Macro broth dilution MIC, Group D Enterococcus isolates (Test 1). The class given is cell-based. To be noted: 24 h, read after 24 hours, read-out: Minimum Inhibitory Concentration. The procedure:
as §1

The test system of a further test is Neisseria gonorrhoeae. The test is described as follows: Agar dilution MIC, Neisseria gonorrhoeae isolates (Test 3). The class given is cell-based. Conditions: 24 h, read-out: Minimum Inhibitory Concentration. How it is done: Compounds were tested against six Neisseria gonorrhoeae isolates. The bacteria used were provided by the Department of Bacterial Diseases of the Walter Reed Army Institute of Research. The test procedure used was the agar dilution method in duplicate as outlined by J. C. Sherris on pages 411-412 (loc. cit.). GC Medium (Difco) with a 2% defined supplement added as described by D. S. Kellogg et al. [J. Bact. 85:1274-1279 (1963)] was used as the media. The compounds were dissolved in DMSO (1.0 mg/mL), diluted with GC broth (GC Medium without agar) to the appropriate concentration, and added to the GC Medium at 55°-56° C. The latter was then poured and allowed to solidify. A penicillin standard was also prepared with initial dilutions as described by J. C. Sherris followed by dilutions with GC broth and addition to the GC Medium at 55°-56° C. as above. The inoculum was 1:200 GC broth dilution of a suspension of colony isolates after the suspension was adjusted visually to the turbidity standard described by J. M. Matsen and A. L. Barr on page 422 in "Manual of Clinical Microbiology," 2nd ed., E. Lennette, E. H. Spaulding, and J. P. Truant, Ed. (American Society for Microbiology, Washington, D.C., 1974). The plates were inoculated with a replicator and incubated at 37° C. under 5-10% carbon dioxide.

The test system of test [2] is Mycobacterium intracellulare. Description: Broth dilution MIC, Mycobacterium intracellulare strains (Test 6). Conditions: read-out: Minimum Inhibitory Concentration. The class given is cell-based.
[3] abbreviates: Staphylococcus aureus isolate I.
The mark [4] stands for this setting: Staphylococcus aureus isolate II.
Where [5] appears, read: Staphylococcus aureus isolate III.
Where [6] appears, read: Staphylococcus aureus isolate IV.
The mark [7] stands for this setting: Staphylococcus aureus isolate V.
Where [8] appears, read: Neisseria meningitidis isolate 7957.
Where [9] appears, read: Neisseria meningitidis isolate 7990.
[10] abbreviates: Neisseria meningitidis isolate 8005.
The mark [11] stands for this setting: Neisseria meningitidis isolate 8006.
Setting [12] is: Neisseria meningitidis isolate 8011.

In the case of `CC(=NNC(=S)N1CCCCC1C)c1ccccn1` (stereo not drawn) [B, 2-Methylpiperidine-1-thiocarboxylic acid 2-[1-(2-pyridyl)ethylidene]hydrazide], the MIC is 1 µg/mL (≈ 3.62 µM) in the test with Staphylococcus aureus (setting [3]); 1 µg/mL (≈ 3.62 µM) in the test with Staphylococcus aureus (setting [4]); 1 µg/mL (≈ 3.62 µM) in the test on Staphylococcus aureus (setting [5]); 1 µg/mL (≈ 3.62 µM) in the test on Staphylococcus aureus (setting [6]); 1 µg/mL (≈ 3.62 µM) in the test with Staphylococcus aureus (setting [7]); 0.062 µg/mL (≈ 0.224 µM) with Neisseria meningitidis (setting [8]). For the same molecule, the MIC with Neisseria meningitidis (setting [9]) was determined as 0.062 µg/mL (≈ 0.224 µM); in the test on Neisseria meningitidis (setting [10]) it was 0.125 µg/mL (≈ 0.452 µM); in the test on Neisseria meningitidis (setting [11]), 0.062 µg/mL (≈ 0.224 µM); with Neisseria meningitidis (setting [12]), 0.5 µg/mL (≈ 1.81 µM). Moreover, the ED50 in test [1] is 57 mg/kg. Moreover, the results for the “In vivo Antimalarial Activity” value in test [1] (Dosage Level 160 mg/kg), in test [1] (Dosage Level 320 mg/kg) and in test [1] (Dosage Level 640 mg/kg) were “Active”, “Toxic” and “Toxic”, respectively.

`CC(=NNC(=S)N1CC2CCC(CC2)C1)c1ccccn1` [L, 3-Azabicyclo[3.2.2]nonane-3-thiocarboxylic acid 2-[1-(2-pyridyl)ethylidene]hydrazide]: the MIC stood at 1 µg/mL (≈ 3.31 µM) in the test with Staphylococcus aureus (setting [3]); 1 µg/mL (≈ 3.31 µM) with Staphylococcus aureus (setting [4]); 1 µg/mL (≈ 3.31 µM) in the test with Staphylococcus aureus (setting [5]); 1 µg/mL (≈ 3.31 µM) in the test with Staphylococcus aureus (setting [6]); 1 µg/mL (≈ 3.31 µM) with Staphylococcus aureus (setting [7]); 2 µg/mL (≈ 6.61 µM) in the test on Group D Enterococcus (Group D Enterococcus isolate I). Further, the MIC worked out at 2 µg/mL (≈ 6.61 µM) in the test with Group D Enterococcus (Group D Enterococcus isolate II); 2 µg/mL (≈ 6.61 µM) with Group D Enterococcus (Group D Enterococcus isolate III); 2 µg/mL (≈ 6.61 µM) with Group D Enterococcus (Group D Enterococcus isolate IV); 2 µg/mL (≈ 6.61 µM) with Group D Enterococcus (Group D Enterococcus isolate V); 0.031 µg/mL (≈ 0.102 µM) with Neisseria meningitidis (setting [8]); 0.062 µg/mL (≈ 0.205 µM) in the test on Neisseria meningitidis (setting [9]). The MIC was < 0.031 µg/mL in the test on Neisseria meningitidis (setting [10]); 0.062 µg/mL (≈ 0.205 µM) with Neisseria meningitidis (setting [11]); 0.125 µg/mL (≈ 0.413 µM) with Neisseria meningitidis (setting [12]); 0.031 µg/mL (≈ 0.102 µM) in the test on Neisseria gonorrhoeae (Neisseria gonorrhoeae isolate 135, read after 24 hours); 0.016 µg/mL (≈ 0.0529 µM) in the test on Neisseria gonorrhoeae (Neisseria gonorrhoeae isolate 161, read after 24 hours); 0.031 µg/mL (≈ 0.102 µM) with Neisseria gonorrhoeae (Neisseria gonorrhoeae isolate 278, read after 24 hours). Moreover, the MIC stood at 0.031 µg/mL (≈ 0.102 µM) in the test on Neisseria gonorrhoeae (Neisseria gonorrhoeae isolate 455, read after 24 hours); 0.031 µg/mL (≈ 0.102 µM) in the test on Neisseria gonorrhoeae (Neisseria gonorrhoeae isolate 456, read after 24 hours); 0.031 µg/mL (≈ 0.102 µM) in the test with Neisseria gonorrhoeae (Neisseria gonorrhoeae isolate 602, read after 24 hours); 10 µg/mL (≈ 33.1 µM) in test [2] (Mycobacterium intracellulare strain I); 1 µg/mL (≈ 3.31 µM) in test [2] (Mycobacterium intracellulare strain II); 1 µg/mL (≈ 3.31 µM) in test [2] (Mycobacterium intracellulare strain III). In addition, the MIC in test [2] (Mycobacterium intracellulare strain IV), in test [2] (Mycobacterium intracellulare strain V) and in test [2] (Mycobacterium intracellulare strain VI) was 0.1 µg/mL (≈ 0.331 µM) each time. In addition, the ED50 in test [1] was 59 mg/kg.
